Measurements published in patent publication US5235843A, “Method and apparatus for analyzing volatile chemical components in a liquid” (The Dow Chemical Company, priority 1991, dated 1993).

assay: Enrichment (partitioning from water to air in segmented flow), enrichment factor; format: physicochemical; conditions: calculated enrichment factor
Text: That is, each enrichment factor is a direct measure of the detection capabilities of the method and apparatus with respect to a specific volatile compound compound.
Both the detection limit in air and quantitation limit in water will vary depending on the sensitivity of the analytical equipment used. Thus, at any given testing site the sensitivity of the particular gas chromatograph used will determine detection and quantitation limits.
Without benefit of known enrichment factor for each compound compound present, extrapolation of the quantitation limit (LOQ) for each compound was accomplished by multiplying the signal-to-noise ratio of the test instrument by ten. These quantitation limits are a reflection of both the detector sensitivity (LOD) and what can be referred to as the enrichment factor or magnification of the concentration into the air phase. Thus, an enrichment factor was calculated for each compound as follows: [formula]
The enrichment factor depends on the volatility, water solubility, and diffusion coefficient of the particular compound.

Compound	EF (air/water)
ClC(Cl)C(Cl)Cl [1,1,2,2-TETRACHLOROETHANE]	2.0
ClCC(Cl)Cl [1,1,2-TRICHLOROETHANE]	3.9
CC(Cl)(Cl)Cl [1,1,-TRICHLOROETHANE]	6.8
CC(Cl)Cl [1,1-DICHLOROETHANE]	6.7
Clc1ccccc1Cl [1,2-DICHLOROBENZENE]	1.7
ClCCCl [1,2-DICHLOROETHANE]	6.8
CC(Cl)CCl (stereo not drawn) [1,2-DICHLOROPROPANE]	7.7
ClC(Cl)Br [BROMODICHLOROMETHANE]	7.7
BrC(Br)Br [BROMOFORM]	2.0
ClC(Cl)(Cl)Cl [CARBON TETRACHLORIDE]	7.7
Clc1ccccc1 [CHLOROBENZENE]	4.0
ClC(Br)Br [CHLORODIBROMOMETHANE]	3.7
ClC(Cl)Cl [CHLOROFORM]	6.6
CBr [METHYL BROMIDE]	76
ClCCl [METHYLENE CHLORIDE]	8.2
ClC(Cl)=C(Cl)Cl [PERCHLOROETHYLENE]	4.8
ClC=C(Cl)Cl [TRICHLOROETHYLENE]	9.9
C=C(Cl)Cl [[…]]	12
Cl/C=C\CCl [c-1,3 DICHLOROPROPENE]	3.6
Cl/C=C/Cl [t-1,2-DICHLOROETHYLENE]	16
Cl/C=C/CCl [t-1,3-DICHLOROPROPENE]	7.2
